The subject of one experiment is IKK complex. As to the kind of experiment: Immunoprecipitation and kinase assay of IKK complex from stimulated HUVEC (GST-IκB-α phosphorylation). It counts as cell-based, human. The protocol: Cells were incubated as indicated and cytosol extracts were made. Immunoprecipitation (IP) with antikinase antibodies as indicated was followed by a kinase assay using the substrate GST.IκB-α in the presence of ^32P-ATP. A time-dependent phosphorylation of the substrate is shown in each case after stimulation of HUVEC with blood platelets (PLT; 2×10^8/ml) (FIG. 6A), IL-1β (100 pg/ml) (FIG. 6B) or TNF (1.67 ng/ml) (FIG. 6C). A representative experiment is shown for each case (n=3). FIG. 6D: the kinase assays were scanned and analysed densitometrically.
Cytosol extracts were subjected to immunoprecipitation (IP) (7) in TNT buffer containing 1 mM dithiothreitol, 0.5 μM 4-(2-aminoethyl)-benzenesulfonyl fluoride (AEBSF) and 0.75 μg/ml each of leupeptin, antipain, aprotinin, pepstatin A and chymostatin (Sigma). […] After washing three times with TNT and kinase buffer each time (20 mM HEPES, pH 8.0; 10 mM MgCl2, 100 μM Na3VO4; 20 mM β-glycerophosphate; 50 mM NaCl; 2 mM dithiothreitol; 0.5 μM AEBSF; 0.75 μg/ml each of leupeptin, antipain, aprotinin, pepstatin A, chymostatin), the precipitated proteins were analysed by a kinase assay. […] Proteins were analysed with PAGE and visualised by means of autoradiography. […]

A further experiment deals with IκB-α and IκB-ε. As to the kind of experiment: Western blot of IκB-α/IκB-ε proteolysis in stimulated HUVEC. It counts as cell-based, human. The protocol: FIG. 5A: nuclear extracts from HUVEC stimulated with blood platelets (PLT; 2×10^8/ml) were examined by EMSA for NF-κB or Sp-1 binding, which is shown in brackets. FIG. 5B: cytosol extracts from cells stimulated with blood platelets were analysed by means of western blots. The proteins IκB-α, IκB-ε, IKK-α and IKK-β are indicated by arrow heads. α-Actin was used as a loading control. FIG. 5C: cytosol extracts from cells stimulated with IL-β (100 pg/ml) were examined by means of western blots. FIG. 5D: cells were incubated with TNF (1.67 ng/ml) and cytosol extracts were examined by means of western blots. The top arrow indicates the phosphorylated forms of IκB-α or IκB-ε. A representative blot is shown for all cases (n=3).
Cytosol extracts were isolated, and electrophoresis and blotting were carried out as described in the prior art (6, 7). After transfer, the membranes were incubated with antibodies to IκB-α (Santa Cruz Biotechnology, Heidelberg), IκB-ε (Prof. N. Rice, NIH, Frederick, Md.), IKK-α, IKK-β (Santa Cruz Biotechnology) or α-actin (Sigma). The proteins were visualised on X-ray film using a western blot chemiluminescence reagent (NEN Life Science Products). Protein sizes were confirmed by means of molecular weight standards (Amersham Pharmacia Biotech, Braunschweig, Bio-Rad, Munich). […]

From patent publication US20040241166A1, “Use of inhibitors of ikk-beta and method for discovery of said inhibitors” (priority 2001, published 2004) come the findings set out here.

In the case of “IL-1β: cytokine used as stimulus of HUVEC, 100 pg/ml”, in the experiment on IKK complex, the “time for which IKK activation is maintained” value was “at least 90 minutes” and the “time of IKK activation peak” value was found to be 45 min. In addition, in the experiment on IκB-α and IκB-ε, the “beginning of IκB-α degradation after incubation” value came out at 15 min and the “time of significant IκB-ε proteolysis” value stood at 60 min.
